Experimental data reported in patent US20230233569A1 (Revolution Medicines, Inc., priority 2020, published 2023).

Tests used:
NCI-H358 (K-Ras G12C) = assay: CellTiter-Glo cell viability assay, 5-day treatment; format: cell-based; settings: Homo sapiens, NCI-H358, 120 h, 5-day treatment; read-out: H358 Cell Viability assay data (K-Ras G12C, IC50)
Method in brief: (§1)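 Five-day compound treatment of plated cells; luminescent read after ~30 min at RT. Percent-of-DMSO data fit to a four-parameter logistic model.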

Capan-1 (K-Ras G12V) = assay: as above; format: cell-based; settings: Homo sapiens, CAPAN-1, 120 h, 5-day treatment; read-out: Capan-1 Cell Viability assay data (K-Ras G12V, IC50)
Method in brief: as §1

KRAS G12S = KRAS G12S (Homo sapiens, UniProt P01116+P62937, G12S); assay: Disruption of BRAF RBD interaction with Ras (FRET / MOA assay, with Cyclophilin A); format: biochemical; settings: read-out: KRAS G12S FRET data, IC50
Chain of KRAS G12S (P01116 1-169 isoform P01116-2 G12S limits assumed): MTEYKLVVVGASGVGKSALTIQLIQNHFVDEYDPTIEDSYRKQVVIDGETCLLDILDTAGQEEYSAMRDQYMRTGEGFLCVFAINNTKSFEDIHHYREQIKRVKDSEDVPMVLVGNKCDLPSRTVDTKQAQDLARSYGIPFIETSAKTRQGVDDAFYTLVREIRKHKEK
Chain of KRAS G12S (P62937 whole entry): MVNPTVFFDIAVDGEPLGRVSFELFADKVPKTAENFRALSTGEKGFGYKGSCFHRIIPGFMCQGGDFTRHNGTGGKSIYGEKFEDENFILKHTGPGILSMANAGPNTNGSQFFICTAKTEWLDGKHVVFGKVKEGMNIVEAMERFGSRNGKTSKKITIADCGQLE
Method in brief: (§2)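 TR-FRET readout: a drop in ratio relative to DMSO wells marks disruption of the K-Ras:BRAF RBD complex via compound-induced K-Ras–Cyclophilin A ternary complex. Dosing used ten 3-fold steps from 30 μM final, 3 h at 25 °C, then Eu-anti-His 10 nM plus APC-anti-GST 50 nM for another 1.5 h. Values are IC50s.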

KRAS WT = KRAS WT (Homo sapiens, UniProt P01116+P62937); assay: as above; format: biochemical; settings: KRAS WT; read-out: KRAS WT FRET data IC50
Chain of KRAS WT (P01116 1-169 isoform P01116-2 limits assumed): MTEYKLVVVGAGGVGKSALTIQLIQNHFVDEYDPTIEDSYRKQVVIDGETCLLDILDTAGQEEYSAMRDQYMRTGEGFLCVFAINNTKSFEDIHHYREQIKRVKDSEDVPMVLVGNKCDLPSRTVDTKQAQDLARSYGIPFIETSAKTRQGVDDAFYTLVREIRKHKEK
Chain of KRAS WT (P62937 whole entry): as the sequence (P62937 whole entry) above
Method in brief: as §2

KRAS G12C = KRAS G12C (Homo sapiens, UniProt P01116+P62937, G12C); assay: as above; format: biochemical; settings: read-out: KRAS G12C FRET data, IC50
Chain of KRAS G12C (P01116 1-169 isoform P01116-2 G12C): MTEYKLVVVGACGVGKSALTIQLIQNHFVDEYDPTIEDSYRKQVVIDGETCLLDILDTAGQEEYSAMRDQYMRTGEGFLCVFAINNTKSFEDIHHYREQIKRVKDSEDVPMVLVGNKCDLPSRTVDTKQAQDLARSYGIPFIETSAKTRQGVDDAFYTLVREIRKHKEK
Chain of KRAS G12C (P62937 whole entry): as the sequence (P62937 whole entry) above
Method in brief: as §2

KRAS G12D = KRAS G12D (Homo sapiens, UniProt P01116+P62937, G12D); assay: as above; format: biochemical; settings: read-out: KRAS G12D FRET data, IC50
Chain of KRAS G12D (P01116 1-169 isoform P01116-2 G12D limits assumed): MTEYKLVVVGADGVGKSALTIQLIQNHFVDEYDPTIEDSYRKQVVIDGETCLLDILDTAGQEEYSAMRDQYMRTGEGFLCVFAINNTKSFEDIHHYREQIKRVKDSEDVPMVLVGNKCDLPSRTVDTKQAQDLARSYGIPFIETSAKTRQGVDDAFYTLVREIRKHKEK
Chain of KRAS G12D (P62937 whole entry): as the sequence (P62937 whole entry) above
Method in brief: as §2

KRAS G13D = KRAS G13D (Homo sapiens, UniProt P01116+P62937, G13D); assay: as above; format: biochemical; settings: KRAS G13D; read-out: KRAS G13D FRET data IC50
Chain of KRAS G13D (P01116 1-169 isoform P01116-2 G13D limits assumed): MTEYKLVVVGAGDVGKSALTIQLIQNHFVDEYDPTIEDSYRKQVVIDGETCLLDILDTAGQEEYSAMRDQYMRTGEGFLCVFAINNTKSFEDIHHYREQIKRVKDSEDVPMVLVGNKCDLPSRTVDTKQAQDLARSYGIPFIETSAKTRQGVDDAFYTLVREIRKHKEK
Chain of KRAS G13D (P62937 whole entry): as the sequence (P62937 whole entry) above
Method in brief: as §2

KRAS G13C = KRAS G13C (Homo sapiens, UniProt P01116+P62937, G13C); assay: as above; format: biochemical; settings: read-out: KRAS G13C FRET data, IC50
Chain of KRAS G13C (P01116 1-169 isoform P01116-2 G13C): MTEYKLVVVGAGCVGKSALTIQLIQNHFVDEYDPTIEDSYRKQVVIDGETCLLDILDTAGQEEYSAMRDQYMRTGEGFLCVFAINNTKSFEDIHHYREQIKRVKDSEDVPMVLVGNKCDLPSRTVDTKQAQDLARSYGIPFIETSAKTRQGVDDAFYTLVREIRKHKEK
Chain of KRAS G13C (P62937 whole entry): as the sequence (P62937 whole entry) above
Method in brief: as §2

KRAS G12V = KRAS G12V (Homo sapiens, UniProt P01116+P62937, G12V); assay: as above; format: biochemical; settings: KRAS G12V; read-out: KRAS G12V FRET data IC50
Chain of KRAS G12V (P01116 1-169 isoform P01116-2 G12V limits assumed): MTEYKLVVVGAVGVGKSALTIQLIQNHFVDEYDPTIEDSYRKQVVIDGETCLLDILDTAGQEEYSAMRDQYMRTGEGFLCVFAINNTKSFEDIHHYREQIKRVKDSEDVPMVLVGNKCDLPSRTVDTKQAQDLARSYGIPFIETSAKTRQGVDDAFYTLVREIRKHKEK
Chain of KRAS G12V (P62937 whole entry): as the sequence (P62937 whole entry) above
Method in brief: as §2

NRAS G12C = NRAS G12C (Homo sapiens, UniProt P01111+P62937, G12C); assay: as above; format: biochemical; settings: NRAS G12C; read-out: NRAS G12C FRET data IC50
Chain of NRAS G12C (P01111 whole entry G12C): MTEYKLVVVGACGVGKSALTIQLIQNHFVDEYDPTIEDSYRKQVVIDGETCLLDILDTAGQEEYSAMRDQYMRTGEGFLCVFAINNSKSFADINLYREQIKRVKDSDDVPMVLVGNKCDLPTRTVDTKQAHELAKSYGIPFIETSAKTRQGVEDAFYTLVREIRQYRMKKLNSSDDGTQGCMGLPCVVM
Chain of NRAS G12C (P62937 whole entry): as the sequence (P62937 whole entry) above

NRAS Q61R = NRAS Q61R (Homo sapiens, UniProt P01111+P62937, Q61R); assay: as above; format: biochemical; settings: NRAS Q61R; read-out: NRAS Q61R FRET data IC50
Chain of NRAS Q61R (P01111 whole entry Q61R): as the sequence (P01111 whole entry G12C) above, with C12G, Q61R counted along it
Chain of NRAS Q61R (P62937 whole entry): as the sequence (P62937 whole entry) above
Method in brief: (§3)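 TR-FRET in 25 mM HEPES pH 7.3, 100 mM NaCl, 5 mM MgCl2, 0.1% BSA: 25 μM Cyclophilin A, 12.5 nM His6-Ras-GMPPNP, 50 nM GST-BRAF RBD with compound (10-point 3-fold series from 30 μM), 3 h at 25° C. Anti-His Eu/anti-GST APC added, 1.5 h more; IC50 from decreased FRET ratio versus DMSO.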

KRAS Q61H = KRAS Q61H (Homo sapiens, UniProt P01116+P62937, Q61H); assay: as above; format: biochemical; settings: KRAS Q61H; read-out: KRAS Q61H FRET data IC50
Chain of KRAS Q61H (P01116 1-169 isoform P01116-2 Q61H limits assumed): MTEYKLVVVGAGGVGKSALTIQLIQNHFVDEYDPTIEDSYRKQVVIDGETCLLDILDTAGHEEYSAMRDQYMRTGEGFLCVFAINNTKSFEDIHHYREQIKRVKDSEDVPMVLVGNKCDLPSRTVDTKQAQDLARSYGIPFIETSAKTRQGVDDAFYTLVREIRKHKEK
Chain of KRAS Q61H (P62937 whole entry): as the sequence (P62937 whole entry) above
Method in brief: as §3

NRAS Q61K = NRAS Q61K (Homo sapiens, UniProt P01111+P62937, Q61K); assay: as above; format: biochemical; settings: NRAS Q61K; read-out: NRAS Q61K FRET data IC50
Chain of NRAS Q61K (P01111 whole entry Q61K): as the sequence (P01111 whole entry G12C) above, with C12G, Q61K counted along it
Chain of NRAS Q61K (P62937 whole entry): as the sequence (P62937 whole entry) above
Method in brief: as §3

NRAS WT = NRAS WT (Homo sapiens, UniProt P01111+P62937); assay: as above; format: biochemical; settings: NRAS WT; read-out: NRAS WT FRET data IC50
Chain of NRAS WT (P01111 whole entry): as the sequence (P01111 whole entry G12C) above, with C12G counted along it
Chain of NRAS WT (P62937 whole entry): as the sequence (P62937 whole entry) above
Method in brief: as §3

| Compound | IC50 (NCI-H358 (K-Ras G12C)) [nM] | IC50 (KRAS G12S) [nM] | IC50 (KRAS WT) [nM] | IC50 (KRAS G12C) [nM] | IC50 (KRAS G12D) [nM] | IC50 (KRAS G13D) [nM] | IC50 (KRAS G13C) [nM] | IC50 (KRAS G12V) [nM] | IC50 (NRAS G12C) [nM] | IC50 (NRAS Q61R) [nM] | IC50 (KRAS Q61H) [nM] | IC50 (NRAS Q61K) [nM] | IC50 (NRAS WT) [nM] | IC50 (Capan-1 (K-Ras G12V)) [nM] |
| --- | --- | --- | --- | --- | --- | --- | --- | --- | --- | --- | --- | --- | --- | --- |
| CCn1c(-c2cccnc2[C@H](C)OC)c2c3cc(ccc31)-c1csc(n1)C[C@H](NC(=O)[C@H](C(C)C)N(C)C(=O)N1CC(N(C)C)C1)C(=O)N1CCC[C@H](N1)C(=O)OCC(C)(C)C2 (racemic) [Example A170] | 10 to 100 | 100 to 1000 | 100 to 1000 | 100 to 1000 | 1000 to 10000 | 100 to 1000 | 100 to 1000 | 100 to 1000 | 100 to 1000 | 100 to 1000 | 100 to 1000 | 10 to 100 | 100 to 1000 | 10 to 100 |
| CCn1c(-c2cccnc2[C@H](C)OC)c2c3cc(ccc31)-c1cc(O)cc(c1)C[C@H](NC(=O)[C@H](C(C)C)N(C)C(=O)[C@H]1C[C@@H]1O)C(=O)N1CCC[C@H](N1)C(=O)OCC(C)(C)C2 (single isomer, unassigned) [Example A346] | 100 to 1000 | 100 to 1000 | 10 to 100 | 10 to 100 | 100 to 1000 | 100 to 1000 | 10 to 100 | 100 to 1000 | 10 to 100 | 100 to 1000 | 10 to 100 | 100 to 1000 | 10 to 100 | 100 to 1000 |

More lines, main results first:

| IC50 (NCI-H358 (K-Ras G12C)) [nM] | IC50 (KRAS G12S) [nM] | IC50 (KRAS WT) [nM] | IC50 (KRAS G12C) [nM] | IC50 (KRAS G12D) [nM] | IC50 (KRAS G13D) [nM] | IC50 (KRAS G13C) [nM] | IC50 (KRAS G12V) [nM] | IC50 (NRAS G12C) [nM] | IC50 (NRAS Q61R) [nM] | IC50 (KRAS Q61H) [nM] | IC50 (NRAS Q61K) [nM] | IC50 (NRAS WT) [nM] | Compound | IC50 (Capan-1 (K-Ras G12V)) [nM] |
| --- | --- | --- | --- | --- | --- | --- | --- | --- | --- | --- | --- | --- | --- | --- |
| 10 to 100 | 100 to 1000 | 100 to 1000 | 10 to 100 | 100 to 1000 | 100 to 1000 | 100 to 1000 | 100 to 1000 | 10 to 100 | 100 to 1000 | 10 to 100 | 10 to 100 | 100 to 1000 | CCn1c(-c2cccnc2[C@H](C)OC)c2c3cc(ccc31)-c1csc(n1)C[C@H](NC(=O)[C@H](C(C)C)N(C)C(=O)N1CC(C(C)(C)OC)C1)C(=O)N1CCC[C@H](N1)C(=O)OCC(C)(C)C2 (atropisomer, axis not shown) [Example A614] | 10 to 100 |
| < 10 | 100 to 1000 | 100 to 1000 | 10 to 100 | 100 to 1000 | 100 to 1000 | 100 to 1000 | 100 to 1000 | 10 to 100 | 10 to 100 | 10 to 100 | 10 to 100 | 10 to 100 | CCn1c(-c2cccnc2[C@H](C)OC)c2c3cc(ccc31)-c1csc(n1)C[C@H](NC(=O)[C@H](C(C)C)N(C)C(=O)N(C)C)C(=O)N1CCC[C@H](N1)C(=O)OCC(C)(C)C2 (racemic) [Example A136] | 10 to 100 |
| < 10 | 10 to 100 | 10 to 100 | 10 to 100 | 10 to 100 | 10 to 100 | 10 to 100 | 10 to 100 | 10 to 100 | 10 to 100 | < 10 | 10 to 100 | 10 to 100 | CCn1c(-c2cccnc2[C@H](C)OC)c2c3cc(ccc31)-c1cc(O)cc(c1)C[C@H](NC(=O)[C@H](C(C)C)N(C)C(=O)C1(C#N)CC1)C(=O)N1CCC[C@H](N1)C(=O)OCC(C)(C)C2 (racemic) [Example A159] | 10 to 100 |
